Laboratory results taken from US20230019280A1, “SUBSTITUTED ISOINDOLONYL 2,2'-BIP[…], ANALOGUES THEREOF, AND METHODS USING SAME” (priority 2019, published 2023).
Like-named read-outs stand apart in the source and are kept apart here.

System: HBsAg
Assay: HBsAg assay (inhibition of HBsAg in HepG2.2.15 cells)
Assay type: cell-based, hepatitis B virus
Conditions: supernatant HBsAg by CLIA at day 6 after exposure of compounds
Experimental: Inhibition of HBsAg was determined in HepG2.2.15 cells. Cells were maintained in culture medium containing 10% fetal calf serum, […], Glutamine, penicillin/streptomycin. Cells were seeded in 96-well collagen-coated plate at a density of 30,000 cells/well. Serially diluted compounds were added to cells next day at the final DMSO concentration of 0.5%. Cells were incubated with compounds for 2-3 days, after which medium was removed. Fresh medium containing compounds was added to cells for additional 3-4 days. At day 6 after exposure of compounds, supernatant was collected, the HBsAg immunoassay (microplate-based chemiluminescence immunoassay kits, CLIA, Autobio Diagnosics Co., Zhengzhou, China, Catalog #CL0310-2) was used to determine the level of HBsAg according to manufactory instruction. Dose-response curves were generated and the EC50 value (effective concentrations that achieved 50% inhibitory effect) were determined using XLfit software. In addition, cells were seeded at a density of 5,000 cells/well for determination of cell viability in the presence and absence of compounds by using CellTiter-Glo reagent (Promega).

[1] = read-out: sAg EC50, HepG2.2.15 cells
[2] = Hepatitis B virus, HepG2.2.15, 144 h, read-out: sAg EC50, HepG2.2.15 cells

| Compound | EC50 [1] [nM] | EC50 [2] [nM] |
| --- | --- | --- |
| CCC1c2cc(OC)c(OC)cc2C(=O)N1c1ccnc(-c2ncc(F)cn2)n1 (single isomer, unassigned) [Example 73, 3-Ethyl-2-(5′-fluoro-[2,2′-bipyrimidin]-4-yl)-5,6-dimethoxyisoindolin-1-one] | 1000 |  |
| CCC1c2cc(OC)c(OC)cc2C(=O)N1c1ccnc(-c2ncccn2)n1 (single isomer, unassigned) [Example 2, 2-([2,2′-Bipyrimidin]-4-yl)-3-ethyl-5,6-dimethoxyisoindolin-1-one] | 13 |  |
| COc1cc2c(cc1OC)C(CCC(F)(F)F)N(c1ccnc(-c3ncccn3)n1)C2=O (single isomer, unassigned) [Example 17, 2-([2,2′-Bipyrimidin]-4-yl)-5,6-dimethoxy-3-(3,3,3-trifluoropropyl)isoindolin-1-one] | 20 |  |
| COc1cc2c(cc1OC)C(CCC(F)(F)F)N(c1ccnc(-c3ncccn3)n1)C2=O (single isomer, unassigned) [Example 16, 2-([2,2′-Bipyrimidin]-4-yl)-5,6-dimethoxy-3-(3,3,3-trifluoropropyl)isoindolin-1-one] | 30000 |  |
| CCC1c2cc(OC)c(OC)cc2C(=O)N1c1ccnc(-c2ncccn2)n1 (single isomer, unassigned) [Example 3, 2-([2,2′-Bipyrimidin]-4-yl)-3-ethyl-5,6-dimethoxyisoindolin-1-one] | 1000 |  |
| COc1cc2c(cc1OC)C(c1ccc3c(c1)OCCO3)N(c1ccnc(-c3ncccn3)n1)C2=O (stereo not drawn) [Example 26, 2-([2,2′-Bipyrimidin]-4-yl)-3-(2,3-dihydrobenzo[b][1,4]dioxin-6-yl)-5,6-dimethoxyisoindolin-1-one] |  | 18 |
| CCC1c2cc(OC)c(OC)cc2C(=O)N1c1ccnc(-c2ncccn2)c1 (single isomer, unassigned) [Example 34, 3-Ethyl-5,6-dimethoxy-2-(2-(pyrimidin-2-yl)pyridin-4-yl)isoindolin-1-one] | 62 |  |
| COc1cccc(C2c3cc(OC)c(OC)cc3C(=O)N2c2ccnc(-c3ncccn3)n2)c1 (single isomer, unassigned) [Example 12, 2-([2,2′-Bipyrimidin]-4-yl)-5,6-dimethoxy-3-(3-methoxyphenyl)isoindolin-1-one] | 5 |  |
| COc1cc2c(cc1OC)C(c1ccc(C)nc1)N(c1ccnc(-c3ncccn3)n1)C2=O (single isomer, unassigned) [Example 18, 2-([2,2′-Bipyrimidin]-4-yl)-5,6-dimethoxy-3-(6-methylpyridin-3-yl)isoindolin-1-one] | 10 |  |
| CCC1c2cc(F)c(OC)cc2C(=O)N1c1ccnc(-c2ncccn2)n1 (single isomer, unassigned) [Example 50, 3-Ethyl-5-fluoro-6-methoxy-2-(2-pyrimidin-2-ylpyrimidin-4-yl)isoindolin-1-one] | 480 |  |
| COc1cc2c(cc1OC)C(c1ccccn1)N(c1ccnc(-c3ncccn3)n1)C2=O (single isomer, unassigned) [Example 22, 2-([2,2′-Bipyrimidin]-4-yl)-5,6-dimethoxy-3-(pyridin-2-yl)isoindolin-1-one] | 4 |  |
| COCCC1c2cc(F)c(OC)cc2C(=O)N1c1ccnc(-c2ncccn2)n1 (single isomer, unassigned) [Example 54, 2-([2,2′-Bipyrimidin]-4-yl)-5-fluoro-6-methoxy-3-(2-methoxyethyl)isoindolin-1-one] | 430 |  |
| CCC1c2cc(OC)c(OC)cc2C(=O)N1c1ccnc(-c2ncc(F)cn2)n1 (single isomer, unassigned) [Example 72, 3-Ethyl-2-(5′-fluoro-[2,2′-bipyrimidin]-4-yl)-5,6-dimethoxyisoindolin-1-one] | 39 |  |
| CCC1c2cc(OC)c(OC)cc2C(=O)N1c1cc(-c2ncccn2)ncn1 (stereo not drawn) [Example 37, 2-([2,4′-Bipyrimidin]-6′-yl)-3-ethyl-5,6-dimethoxyisoindolin-1-one] |  | 290 |
| COc1cc2c(cc1OC)C(C1CCOCC1)N(c1ccnc(-c3ncccn3)n1)C2=O (stereo not drawn) [Example 29, 2-([2,2′-Bipyrimidin]-4-yl)-5,6-dimethoxy-3-(tetrahydro-2H-pyran-4-yl)isoindolin-1-one] |  | 30 |
| CCC1c2cc(Cl)cc(F)c2C(=O)N1c1ccnc(-c2ncccn2)n1 (single isomer, unassigned) [Example 21, 2-([2,2′-Bipyrimidin]-4-yl)-5-chloro-3-ethyl-7-fluoroisoindolin-1-one] | 25000 |  |
| CCC1c2cc(OC)c(F)cc2C(=O)N1c1ccnc(-c2ncccn2)n1 (single isomer, unassigned) [Example 51, 2-([2,2′-Bipyrimidin]-4-yl)-3-ethyl-6-fluoro-5-methoxyisoindolin-1-one] | 130 |  |
| COc1cc2c(cc1OC)C(CC(C)C)N(c1ccnc(-c3ncccn3)n1)C2=O (single isomer, unassigned) [Example 41, 2-([2,2′-Bipyrimidin]-4-yl)-3-isobutyl-5,6-dimethoxyisoindolin-1-one] | 1000 |  |

| Compound | EC50 [1] [nM] | EC50 [2] [nM] |
| --- | --- | --- |
| O=C1c2cc(F)c(F)cc2CN1c1ccnc(-c2ncccn2)n1 [Example 61, 2-([2,2′-Bipyrimidin]-4-yl)-5,6-difluoroisoindolin-1-one] |  | 450 |
| COc1cc2c(cc1OC)C(c1ccccc1)N(c1nc(-c3ncccn3)ncc1F)C2=O (single isomer, unassigned) [Example 70, 2-(5-Fluoro-[2,2′-bipyrimidin]-4-yl)-5,6-dimethoxy-3-phenylisoindolin-1-one] | 1 |  |
| COc1cc2c(cc1OC)C(c1ccccc1)N(c1ccnc(-c3ncccn3)n1)C2=O (stereo not drawn) [Example 42, 2-([2,2′-Bipyrimidin]-4-yl)-5,6-dimethoxy-3-phenylisoindolin-1-one] |  | 1 |
| CCC1c2cc(F)c(OC(C)C)cc2C(=O)N1c1nc(-c2ncccn2)ncc1F (single isomer, unassigned) [Example 57, 3-Ethyl-5-fluoro-2-(5-fluoro-[2,2′-bipyrimidin]-4-yl)-6-isopropoxyisoindolin-1-one] |  | 110 |
| COc1cc2c(cc1OC)CN(c1ccnc(-c3ncccn3)n1)C(=O)C2 [Example 65, 2-([2,2′-Bipyrimidin]-4-yl)-6,7-dimethoxy-1,4-dihydroisoquinolin-3(2H)-one] |  | 5000 |
| COc1cc2c(cc1OC)C(CC(C)C)N(c1ccnc(-c3ncccn3)n1)C2=O (stereo not drawn) [Example 39, 2-([2,2′-Bipyrimidin]-4-yl)-3-isobutyl-5,6-dimethoxyisoindolin-1-one] |  | 2 |
| COc1cc2c(cc1OC)C1(CC1)N(c1ccnc(-c3ncccn3)n1)C2=O [Example 46, 2′-([2,2′-Bipyrimidin]-4-yl)-5′,6′-dimethoxyspiro[cyclopropane-1,1′-isoindolin]-3′-one] |  | 240 |
| COc1cc2c(cc1OC)C(c1sccc1C)N(c1ccnc(-c3ncccn3)n1)C2=O (stereo not drawn) [Example 27, 2-([2,2′-Bipyrimidin]-4-yl)-5,6-dimethoxy-3-(3-methylthiophen-2-yl)isoindo-lin-1-one] |  | 1 |
| CCC1c2cc(OC)c(C)cc2C(=O)N1c1ccnc(-c2ncccn2)n1 (single isomer, unassigned) [Example 5, 2-([2,2′-Bipyrimidin]-4-yl)-3-ethyl-5-methoxy-6-methylisoindolin-1-one] | 1000 |  |
| COc1cccc(C2c3cc(OC)c(OC)cc3C(=O)N2c2ccnc(-c3ncccn3)n2)c1 (single isomer, unassigned) [Example 13, 2-([2,2′-Bipyrimidin]-4-yl)-5,6-dimethoxy-3-(3-methoxyphenyl)isoindolin-1-one] | 1000 |  |
| COc1cc2c(cc1OC)C(C1CCC1)N(c1ccnc(-c3ncccn3)n1)C2=O (stereo not drawn) [Example 28, 2-([2,2′-Bipyrimidin]-4-yl)-3-cyclobutyl-5,6-dimethoxyisoindolin-1-one] |  | 2 |
| CCC1c2cc(OC)c(OC)cc2C(=O)N1c1cncc(-c2ncccn2)n1 (stereo not drawn) [Example 35, 3-Ethyl-5,6-dimethoxy-2-(6-(pyrimidin-2-yl)pyrazin-2-yl)isoindolin-1-one] |  | 1000 |
| CCC1c2cc(F)c(F)cc2C(=O)N1c1cnc(-c2ncccn2)nc1 (single isomer, unassigned) [Example 59, 2-([2,2′-Bipyrimidin]-5-yl)-3-ethyl-5,6-difluoroisoindolin-1-one] |  | 10000 |
| COc1cc2c(cc1OC)C(c1ccc(C)nc1)N(c1ccnc(-c3ncccn3)n1)C2=O (single isomer, unassigned) [Example 19, 2-([2,2′-Bipyrimidin]-4-yl)-5,6-dimethoxy-3-(6-methylpyridin-3-yl)isoindolin-1-one] | 390 |  |
| COc1ccc(C2c3cc(OC)c(OC)cc3C(=O)N2c2ccnc(-c3ncccn3)n2)cc1 (single isomer, unassigned) [Example 10, 2-([2,2′-Bipyrimidin]-4-yl)-5,6-dimethoxy-3-(4-methoxyphenyl)isoindolin-1-one] | 13 |  |
| CCC1c2cc(OC)c(OC)cc2C(=O)N1c1cnc(-c2ncccn2)nc1 (stereo not drawn) [Example 30, 3-Ethyl-5,6-dimethoxy-2-(2-pyrimidin-2-ylpyrimidin-5-yl)isoindolin-1-one] |  | 48000 |
| COc1cc2c(cc1F)C1(CC1)N(c1ccnc(-c3ncccn3)n1)C2=O [Example 47, 2′-([2,2′-Bipyrimidin]-4-yl)-6′-fluoro-5′-methoxyspiro[cyclopropane-1,1′-isoindolin]-3′-one] |  | 120 |
| CCC1c2cc(OC)c(OC)cc2C(=O)N1c1ccnc(-c2ncccn2)c1 (single isomer, unassigned) [Example 33, 3-Ethyl-5,6-dimethoxy-2-(2-(pyrimidin-2-yl)pyridin-4-yl)isoindolin-1-one] | 7 |  |
